According to patent publication US10849875B2, “Cancer specific lipid targeted peptidomimetics” (University of Houston System, priority 2015, dated 2020):
“Also recorded” adds a separate entry of the source. Positions of bridges follow the written chain, without caps; N, C: chain ends. Non-standard residues stand in square brackets, D forms with d. Residues, ends and D or L forms follow the SMILES beside them. Chains are numbered I, II in the order given. Gly(N-piperonyl) = O=C(O)CNCc1ccc2c(c1)OCO2; N(4-MeOBn)Gly = COc1ccc(CNCC(=O)O)cc1; Nrpe = C[C@@H](NCC(=O)O)c1ccccc1; Nlys = NCCCCNCC(=O)O

Tests used:
[1] = Lipid ELISA-like binding assay
Text: Structural features of PPS1and PS were compared to determine why PPS1 preferred PS over PC. PPS1 has three positive charged residues aligned together and a hydrophobic region with four consecutive aromatic rings (FIG. 9A). This can perfectly form both electrostatic and hydrophobic interactions with opposing negatively charged PS head groups and its hydrophobic tail regions.
(§1) One of the major questions arising at this point is how PPS1 or PPS1D1 specifically recognizes PS over PC, as both lipids have negatively charged phosphate head groups. To address this specificity concern, ELISA-like binding assay were expanded to include other membrane phospholipids such as phosphatidylethanolamine (PE), sphingomyelin (SM), phosphatidic acid (PA), phosphatidylinositol (PI) and phosphatidylglycerol (PG). […] This additional negative charge can be responsible for the interaction with the positively charged region of PPS1 or PPS1D1, while the hydrophobic regions of PPS1 or PPS1D1 may interact with hydrophobic tail groups of the lipids through van der Waals forces. […] The membrane was treated with biotin labeled PPS1D1 and binding was detected by immunoblotting with streptavidin-HRP. […] It has been reported that PS can form a bilayer lamellar and reverse hexagonal phase. PS is mainly in a lamellar phase after hydration at physiological pH. By validating our binding through an ELISA-like assay and liposomes, PPS1D1 has an equal opportunity to bind to each phase of PS.
Lipids (Avanti Polar Lipids) were dissolved in hexane at 10 μg/ml and coated on to Immulon 1B “U” bottom microtiter plates (ThermoFisher, MA). Hexane was evaporated at room temp (in the hood) and the plates were blocked with 200 μl of 1% BSA in PBS for 1 hour. Plates were washed with 3× PBS. […] Plates were washed with 5× PBS and binding was detected with streptavidin-HRP (1:2000 in blocking buffer) followed by 100 μl OPD (Sigma-Aldrich). The reaction was stopped with 100 μl 0.18M H2SO4 and absorbance was read at 490 nm using the spectrophotometer (Spectramax i3, Molecular Devices, CA).

[2] = system: HCC4017, H460, HCC95, H1693, H1395 lung cancer cell lines; experiment: MTS cell viability assay on series of lung cancer cell lines; format: cell-based, human
Text: In this current study, the target of PPS1D1 is PS and HCC4017 strongly expresses PS. Our next goal was to evaluate the level of PS externalization on other lung cancer cell lines and the activity profile of PPS1D1 on those cell lines. A variety of lung cancer cell lines HCC4017 (lung adenocarcinoma), H460 (large cell lung cancer), H1395 (lung adenocarcinoma), HCC95 (squamous cell lung carcinoma), H1993 (adenocarcinoma; non-small cell lung cancer), H1695 and HBEC30KT (normal bronchial epithelial cells) were treated with fluorescein-labeled Annexin V (FITC-Annexin V) and the bound fluorescein signal was detected using flow cytometry. […] Standard cell viability (MTS) assay by treating these cell lines with PPS1D1 (1 and 20 μM) and 20 μM of a control compound PC462D1 (FIG. 68) in 96-well plates were performed. […] PPS1D1 had no effect on normal HBEC30KT cells at either concentration.
HCC4017, H460, HCC95, H1693, H1395 and HBEC30KT cells were grown in clear bottom 96 well plates. On second day, lung cancer cells were treated with PPS1, PPS1D1 and control PC462D1 in RPMI medium with 10% FBS containing 3% BSA. HBEC30KT was treated with PPS1, PPS1D1 and control PC462D1 in KSFM media with 3% BSA.

[3] = Membrane lipid array (lipid dot blot); format: binding
Description: (FIGS. 11A and 11B). […] All of the bound lipids PS, PA, PI and PG have an overall negative charge as compared to unbound PC, PE and SM, which are neutral. This extra negative charge is responsible for interacting with positively charged region of PPS1, while the hydrophobic regions of both PPS1 and lipids may interact through van der Waals forces. […] The membrane was first blocked with 3% BSA in TBS-T for 1 hr. After washing with TBS-T, 2.5 μg/ml of biotin labeled PPS1D1 was added. Binding of biotin-PPS1D1 was detected by immunoblotting with streptavidin-HRP antibody. […] The binding affinity of PPS1D1 to PS appears to be strongest among all phospholipids as even at low lipid concentrations, PPS1D1 efficiently binds to it. (FIG. 11D). […] It is well documented that these phospholipids are predominantly present in the inner leaflet in normal cells. […] PC, PE, SM and PS are the most abundant phospholipids. Among these, only PS is an anionic phospholipid. PC and SM are present mostly in the outer leaflet, whereas PE and PS occupy most of inner leaflet with a variety of other anionic phospholipids. However, in stress conditions and in most tumor studied to date, PS and PE flip to the outer leaflet. PPS1D1 has six positively charged residues along with a hydrophobic region. […] However the binding affinity of PPSD1 to these anionic phospholipids is different. […] PPS1D1 could have a structure beyond a simple linear sequence contributing various levels of binding to PS, PA, PI and PG, maintaining highest binding affinity to PS.
Membrane lipid array: Membrane lipid arrays were purchased from Echelon Biosciences. Membranes were blocked in 3% BSA in TBS-T for one hour then incubated with 2.5 μg/ml of biotin-PPS1D1 for two hours. After washing unbound peptoid using TBS-T, bound biotin-PPS1D1 was detected by immunoblotting with Streptavidin-HRP antibody at 1:750 dilution (BioLegend).
as §1
Membrane lipid arrays were purchased from Echelon Biosciences, UT. Membranes were blocked in 3% BSA in TBST for 1 hour and then incubated with 2.5 μg/ml of biotin-PPS1D1 for 2 hours. Membranes were washed with TBST and incubated with Streptavidin-HRP antibody at 1:750 dilutions (BioLegend,CA). After washing, signal was detected with ECL western blotting substrate (Life technologies, CA) using Fluorchem 8900 (Alpha Innotech Imaging system).

[4] = 2.5 μg/ml biotin labeled PPS1D1
[5] = 2.5 μg/ml biotin labeled PPS1D1, listed as PPSD1

For `COc1ccc(CN(CC(=O)N(CCCCN)CC(=O)N[C@@H](CCCCN)C(=O)N[C@H](CCCCN)C(=O)N[C@@H](CCSC)C(=O)NCCCC[C@H](NC(=O)[C@H](CCSC)NC(=O)[C@@H](CCCCN)NC(=O)[C@H](CCCCN)NC(=O)CN(CCCCN)C(=O)CN(Cc2ccc(OC)cc2)C(=O)CN(C(=O)CN(Cc2ccc3c(c2)OCO3)C(=O)CN[C@H](C)c2ccccc2)[C@H](C)c2ccccc2)C(N)=O)C(=O)CN(C(=O)CN(Cc2ccc3c(c2)OCO3)C(=O)CN[C@H](C)c2ccccc2)[C@H](C)c2ccccc2)cc1` [PPS1D1] (I: H-[Nrpe][Gly(N-piperonyl)][Nrpe][N(4-MeOBn)Gly][Nlys]K[dK]MK-NH2 / II: H-[Nrpe][Gly(N-piperonyl)][Nrpe][N(4-MeOBn)Gly][Nlys]K[dK]M; amide I:9-II:C; N-terminus assumed), the “binding to PA” value [1] was “displayed binding”, the “binding to PG” value [1] was “displayed binding” and the “binding to PI” value [1] was “displayed binding”. The “cytotoxicity on lung cancer cell lines” value ([2]; 1 μM) was “not at 1 μM”, the “cytotoxicity on lung cancer cell lines” value ([2]; 20 μM) was “strong cytotoxicity” and the “binding to DAG” value [3, 4] was “did not show binding; also recorded: does not bind”. The “binding to PA” value [3, 4] was “a little weaker binding”, the “binding to PC” value [3, 4] was “does not bind” and the “binding to PE” value [3, 4] was “does not bind”. For the same molecule, the “binding to PG” value [3, 4] was “weaker binding”, the “binding to PI” value [3, 4] was “weaker binding” and the “binding to PS” value [3, 4] was “strongest binding affinity”. The “binding to SM” value [3, 4] was “does not bind”, the “binding to PC” value [3, 5] was “clearly not binding” and the “binding to PE” value [3, 5] was “clearly not binding”. For the same molecule, the “binding to PG” value [3, 5] was “very weak level”, the “binding to PI” value [3, 5] was “very weak level” and the “binding to SM” value [3, 5] was “clearly not binding”.
